# Results from patent US5407660A, “Diagnostic liposomal compositions for enhancing NMR imaging” (Mallinckrodt Medical, Inc., priority 1993, dated 1995).
# Entries after “also recorded” stand apart in the source; their conditions may differ. Like-named read-outs stand apart in the source and are kept apart here.
# Experiments:
# [1] = format: in vivo, marmosets; conditions: for T1 (mean), Blood: 0.3 ml/kg, pre-contrast 507
# [2] = Acute intravenous toxicity in mice (Example 4); conditions: for Cumulative Mortalities/Number Dosed, Female / Cumulative Mortalities/Number Dosed, Male: 7 days; for LD50: 7-day observation
# Method: (§1) In addition, the cardiotoxic effects of single bolus intracoronary arterial injections of 4, 8, 16 or 32 mg MnCl2 were evaluated in the isolated perfused rabbit heart (IPRH).
# (§2) The aqueous vehicle for the suspension of negatively charged liposomes consisted of 0.9% NaCl buffered with 0.003 M sodium phosphate, pH 7.4. The lipid concentration was 50 μmol/ml.
# A total of 60 mice, 30 males (body weight range of 20-33.5 g) and 30 females (body weight range of 19.1-29.7 g) were used. Fifty of the mice were Swiss ICR, CD-1, obtained from Charles River and ten were Swiss CF-1 obtained from Sasco (Omaha, Neb.).
# The four test substances were administered via the lateral tail vein of the mouse at a rate of 1 ml/min with the following doses given.
# [3] = tested on: isolated perfused rabbit heart; test: Intracoronary cardiotoxicity in the isolated perfused rabbit heart (IPRH)
# Method: as §1, §2
# A total of 8 female, New Zealand albino rabbits, with body weights ranging from 1.97-2.96 kg were used in the study.
# Rabbits were sacrificed by cervical dislocation, the hearts excised and coronary perfusion was performed at constant pressure via the aortic root using an oxygenated physiological salt solution (Chenoweth's solution) heated to 37° C. A 0.8%, w/v, solution of MnCl2 was heated to 37° C. and intracoronary bolus injections of 0.5, 1.0, 2.0 and 4.0 ml were made in each of the six hearts via a sidearm of the perfusion apparatus. A period of time sufficient to allow the heart to stabilize was allowed between injections. The heart rate (HR), contractile force (CF) and electrocardiogram (ECG) were recorded on a Grass Model 7 polygraph. The maximal percentage changes from pre-injection control values for HR and CF were determined during intervals of […] and 15-30 seconds after injection. The percentage changes from control HR and CF were also recorded at 1, 2, 3 and 4 minutes after injection. The ECG was examined for arrhythmias. When ventricular fibrillation (VF) occurred, no calculations were performed with CF and HR data from that injection.
# [4] = Biodistribution of 54MnNa2 EDTA and 54Mn-L in rats (Example 5); format: in vivo, Sprague-Dawley rats
# From the text: A total of forty Sprague-Dawley rats (20 male, 217-295 g; 20 female, 151-208 g; Charles River) were used. Drinking water was provided ad libitum. The animals, 2 males and 2 females per group, were selected randomly from their cages and were identified with indelible ink numbers at tail bases before test substance administration.
# Rats were divided into 10 groups consisting of 2 male and 2 female rats per group. […] Immediately after dosing, rats were housed in individual metabolism cages. Ground Purina Laboratory Chow and water were supplied ad libitum to animals sacrificed at 24 and 48 hr after treatment. Rats from both ^54 NmNa2 EDTA and ^54 Mn-L treatment groups were sacrificed by cervical dislocation at 0.5, 2, 4, 24 and 48 hr after treatment, and the following samples were obtained: injection site, blood, liver, lung, spleen, heart, kidneys, salivary gland (submaxillary), brain, bone with marrow, muscle and fat. Urine samples were obtained from animals sacrificed at all intervals of 2 hr or more after injection and fecal samples were obtained from animals sacrificed at 24 and 48 hr after treatment. […] The entire organ weights were determined for the remaining tissues.
# Levels of radioactivity in the biological specimens and aliquots of the injected test substances were determined using a gamma scintillation spectrometer (Model 1085, Nuclear Chicago Corp., Des Plaines, Ill.). Results were calculated on a percent dose/organ (or fluid) and a percent dose/g (or ml) basis using an HP-85 desk top computer (Hewlett Packard, Fort Collins, Colo.).
# Kinetic data for the elimination of radioactivity from liver, spleen, kidneys, heart and bone with marrow were curve fitted by the peeling and least-square methods, to mono or bi-exponential equations: [formula]
# The half-life (t 1/2) for each elimination phase was calculated as 0.693/Ki. The square of the correlation coefficient (r^2) for each elimination phase was calculated as an indication of variability.
# [5] = 32 mg dose, 0-15 s, only 1 heart, all others had VF
smiles,measurement,setting,value
"O.O.O=C([O-])CN(CC(=O)[O-])[C@@H]1CCCC[C@H]1N(CC(=O)[O-])CC(=O)[O-].[Mn+2].[Na+].[Na+] (relative stereo) [EXAMPLE 1 (E), disodium (trans-1,2-diaminocyclohexane-N,N,N',N'-tetraacetate) manganese dihydrate]",Blood (5 min) and liver T1 values (in words),[1]; 0.3 ml/kg i.v.,substantially reduced
same,several other tissue T1's (in words),[1]; 0.3 ml/kg i.v.,slightly reduced
same,"T1 (mean), Blood",[1]; 5 minute,375
same,"T1 (mean), Blood",[1]; 10 minute,454
same,"Tissue T1 (mean), Bladder",[1]; 15 min after 0.3 ml/kg,217
same,"Tissue T1 (mean), Fat",[1]; 15 min after 0.3 ml/kg,68
same,"Tissue T1 (mean), Large Intestine",[1]; 15 min after 0.3 ml/kg,185
same,"Tissue T1 (mean), Liver",[1]; 15 min after 0.3 ml/kg,32
same,"Tissue T1 (mean), Lung",[1]; 15 min after 0.3 ml/kg,280
same,"Tissue T1 (mean), Pancreas",[1]; 15 min after 0.3 ml/kg,103
same,"Tissue T1 (mean), Renal Cortex",[1]; 15 min after 0.3 ml/kg,152
same,"Tissue T1 (mean), Renal Medulla",[1]; 15 min after 0.3 ml/kg,209
same,"Tissue T1 (mean), Skeletal Muscle",[1]; 15 min after 0.3 ml/kg,206
same,"Tissue T1 (mean), Small Intestine",[1]; 15 min after 0.3 ml/kg,107
same,"Tissue T1 (mean), Spleen",[1]; 15 min after 0.3 ml/kg,221
same,"Tissue T1 (mean), Stomach",[1]; 15 min after 0.3 ml/kg,145
same,"Tissue T1 (mean), Heart",[1]; 15 min after 0.3 ml/kg (0.118 mmol Mn(II)/kg),183
same,"T1 (mean), Blood",[1]; 15 minute,511
same,Cardiovascular effects,"[1]; in vivo, iv",minimal
"[Cl][Mn][Cl] [MnCl2, manganese (II) chloride]","Cumulative Mortalities/Number Dosed, Female",[2]; 25 mg/kg i.v.,1/5
same,"Cumulative Mortalities/Number Dosed, Male",[2]; 25 mg/kg i.v.,3/5
same,"Cumulative Mortalities/Number Dosed, Female",[2]; 31.25 mg/kg i.v.,4/5
same,"Cumulative Mortalities/Number Dosed, Male",[2]; 31.25 mg/kg i.v.,2/5
same,"Cumulative Mortalities/Number Dosed, Female",[2]; 37.5 mg/kg i.v.,4/5
same,"Cumulative Mortalities/Number Dosed, Male",[2]; 37.5 mg/kg i.v.,4/5
same,time of death after dosing was completed,[2]; all deaths with the exception of one (4 days),one
same,acute intravenous toxicity (in words),"[2]; intravenous, mice",high degree of acute toxicity
same,LD50,"[2]; intravenous, mice, 10080 min",28 mg/kg
same,LD50,"[2]; intravenous, mice, listed as 1, 10080 min",28.0 mg/kg
same,LD50 as Mn(II),"[2]; intravenous, mice, 10080 min",0.22 mmol/kg of Mn(II)
same,cause of death,"[2]; intravenous, mice, thoracotomy of one mouse",cardiac arrest
same,Incidence of Ventricular Fibrillation (VF),[3]; 4 mg dose,0/6
same,Mean % Change in Contractile Force (CF),"[3]; 4 mg dose, 0-15 s",-5%
same,Mean % Change in Heart Rate (HR),"[3]; 4 mg dose, 0-15 s",-2%
same,Mean % Change in Contractile Force (CF),"[3]; 4 mg dose, 15-30 s",-28%
same,Mean % Change in Heart Rate (HR),"[3]; 4 mg dose, 15-30 s",-2%
same,Mean % Change in Contractile Force (CF),"[3]; 4 mg dose, 1 min",-12%
same,Mean % Change in Contractile Force (CF),"[3]; 4 mg dose, 2 min",+5%
same,Mean % Change in Heart Rate (HR),"[3]; 4 mg dose, 2 min",-2%
same,Incidence of Ventricular Fibrillation (VF),[3]; 8 mg dose,0/6
same,Mean % Change in Contractile Force (CF),"[3]; 8 mg dose, 0-15 s",-74%
same,Mean % Change in Heart Rate (HR),"[3]; 8 mg dose, 0-15 s",-8%
same,Mean % Change in Contractile Force (CF),"[3]; 8 mg dose, 15-30 s",-38%
same,Mean % Change in Heart Rate (HR),"[3]; 8 mg dose, 15-30 s",-7%
same,Mean % Change in Contractile Force (CF),"[3]; 8 mg dose, 1 min",-17%
same,Mean % Change in Heart Rate (HR),"[3]; 8 mg dose, 1 min",-7%
same,Mean % Change in Contractile Force (CF),"[3]; 8 mg dose, 2 min",+2%
same,Mean % Change in Heart Rate (HR),"[3]; 8 mg dose, 2 min",-6%
same,Incidence of Ventricular Fibrillation (VF),[3]; 16 mg dose,2/6
same,Mean % Change in Contractile Force (CF),"[3]; 16 mg dose, 0-15 s",-92%
same,Mean % Change in Heart Rate (HR),"[3]; 16 mg dose, 0-15 s",-31%
same,Mean % Change in Contractile Force (CF),"[3]; 16 mg dose, 15-30 s",-61%
same,Mean % Change in Heart Rate (HR),"[3]; 16 mg dose, 15-30 s",-14%
same,Mean % Change in Contractile Force (CF),"[3]; 16 mg dose, 1 min",-37%
same,Mean % Change in Heart Rate (HR),"[3]; 16 mg dose, 1 min",-14%
same,Mean % Change in Contractile Force (CF),"[3]; 16 mg dose, 2 min",-1%
same,Mean % Change in Heart Rate (HR),"[3]; 16 mg dose, 2 min",-11%
same,premature ventricular contractions in hearts which did not fibrillate,"[3]; 16 mg dose, during or immediately after injection",two of the four hearts
same,Incidence of Ventricular Fibrillation (VF),[3]; 32 mg dose,5/6
same,conduction block in the single heart which failed to fibrillate,[3]; 32 mg dose,complete A-V conduction block with ventricular standstill
same,Mean % Change in Contractile Force (CF),[3]; [5],-100%
same,Mean % Change in Heart Rate (HR),[3]; [5],-100%
same,Mean % Change in Contractile Force (CF),"[3]; 32 mg dose, 15-30 s",-64%
same,Mean % Change in Heart Rate (HR),"[3]; 32 mg dose, 15-30 s",-17%
same,Mean % Change in Contractile Force (CF),"[3]; 32 mg dose, 1 min",-33%
same,Mean % Change in Heart Rate (HR),"[3]; 32 mg dose, 1 min",-17%
same,Mean % Change in Contractile Force (CF),"[3]; 32 mg dose, 2 min",+2%
same,Mean % Change in Heart Rate (HR),"[3]; 32 mg dose, 2 min",-14%
same,arrhythmias (in words),[3]; 4-32 mg,dose-related incidence of arrhythmias; also recorded: conduction delays and ventricular arrhythmias
same,effect on CF and HR (in words),"[3]; 4-32 mg, maximal within 0-15 seconds",Dose-related decreases in CF and HR; also recorded: dose-related depression of contractility and heart rate
same,PR and QRS intervals,"[3]; ECG, 4-32 mg",dose-related increases in PR and QRS intervals
"O=C([O-])CN(CCN(CC(=O)[O-])CC(=O)[O-])CC(=O)[O-].[54Mn+2].[Na+].[Na+] [^54 MnNa2 EDTA, disodium (ethylenediaminetetraacetato) manganese (II)]","distribution, percent dose/organ (in words)",[4]; 0.5-48 hr,"distributed primarily to the liver, bone with marrow, muscle and kidneys"
same,bone and marrow half-life,[4]; bone and marrow,> 100 h
same,"heart half-life, monophasic elimination",[4]; heart,approximately 8 hr
same,blood disappearance/clearance (in words),[4]; intravenous,rapidly cleared from the blood
same,share associated with rapid first phase renal elimination,[4]; kidney,Approximately 81%
same,"renal clearance t 1/2, initial rapid phase","[4]; kidney, biphasic",< 1 h
same,"renal clearance t 1/2, secondary slow phase","[4]; kidney, biphasic",> 17 h
same,share associated with rapid first phase hepatic elimination,[4]; liver,Approximately 92%
same,"hepatic clearance t 1/2, initial rapid phase","[4]; liver, biphasic",< 1 h
same,"hepatic clearance t 1/2, secondary slow phase","[4]; liver, biphasic",> 17 h
same,"spleen half-life, monophasic elimination",[4]; spleen,~ 2 hr
same,dose eliminated in the urine,[4]; within 2 hr after treatment,> 50%
